From US9956187B2 (priority 2014, dated 2018)
Counter-ions that a name gives are not always drawn.

Tests used:
5-HT7 = molecular target: T1, 5-HT7 (Homo sapiens, UniProt P34969); assay: Primary radioligand binding screen
T1 construct: expressed in transfected cells
Method: (§1) Evidence for interaction was based on the inhibition of the reference ligand-binding signal. […] Briefly, 50 μL aliquots of radioactive ligand (5 nM) were added to wells of a 96-well plate, which contained 25 μL of the reference or test ligands. We employed transfected cell lines expressing mainly human (unless otherwise specified) recombinant receptors, monoamine transporters, or ion channels for crude membrane preparation. Detailed information about our membrane preparation is well known in the art and can be obtained from publicly available protocol online. Crude membrane fractions containing the receptors were resuspended in standard binding buffer and 50 μL aliquots added to each well. The reactions were incubated at room temperature for 1.5 hours to allow for radioligand binding equilibration. Bound radioactivity was harvested by rapid filtration through a 0.3% polyethyleneimine-treated, 96-well filter mats using a 96-well Filtermate harvester. The dried filters were treated with melted scintillant and a Microbeta scintillation counter was utilized to measure the radioactivity retained on the filter.

Alpha1D = molecular target: T2, Alpha1D (Homo sapiens, UniProt P25100); assay: Primary radioligand binding screen
T2 construct: expressed in transfected cells
T2 sequence (P25100 whole entry): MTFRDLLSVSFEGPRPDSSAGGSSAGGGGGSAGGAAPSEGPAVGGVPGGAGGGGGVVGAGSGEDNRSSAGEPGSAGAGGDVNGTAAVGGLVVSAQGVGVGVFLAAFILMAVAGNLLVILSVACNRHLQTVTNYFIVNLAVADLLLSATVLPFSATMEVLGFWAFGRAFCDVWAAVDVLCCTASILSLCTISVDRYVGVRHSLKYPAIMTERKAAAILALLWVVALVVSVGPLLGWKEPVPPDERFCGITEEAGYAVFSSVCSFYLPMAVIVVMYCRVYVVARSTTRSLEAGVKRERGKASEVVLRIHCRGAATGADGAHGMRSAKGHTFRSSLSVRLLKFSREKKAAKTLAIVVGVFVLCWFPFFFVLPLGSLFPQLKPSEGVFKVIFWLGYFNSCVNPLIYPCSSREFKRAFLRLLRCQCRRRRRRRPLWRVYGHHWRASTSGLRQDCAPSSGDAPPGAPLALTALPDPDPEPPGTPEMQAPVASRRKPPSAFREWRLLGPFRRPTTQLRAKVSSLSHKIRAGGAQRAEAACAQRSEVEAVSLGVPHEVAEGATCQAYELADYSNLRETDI
Method: as §1

Alpha2A = molecular target: T3, Alpha2A (Homo sapiens, UniProt P08913); assay: Primary radioligand binding screen
T3 construct: expressed in transfected cells
T3 sequence (P08913 whole entry): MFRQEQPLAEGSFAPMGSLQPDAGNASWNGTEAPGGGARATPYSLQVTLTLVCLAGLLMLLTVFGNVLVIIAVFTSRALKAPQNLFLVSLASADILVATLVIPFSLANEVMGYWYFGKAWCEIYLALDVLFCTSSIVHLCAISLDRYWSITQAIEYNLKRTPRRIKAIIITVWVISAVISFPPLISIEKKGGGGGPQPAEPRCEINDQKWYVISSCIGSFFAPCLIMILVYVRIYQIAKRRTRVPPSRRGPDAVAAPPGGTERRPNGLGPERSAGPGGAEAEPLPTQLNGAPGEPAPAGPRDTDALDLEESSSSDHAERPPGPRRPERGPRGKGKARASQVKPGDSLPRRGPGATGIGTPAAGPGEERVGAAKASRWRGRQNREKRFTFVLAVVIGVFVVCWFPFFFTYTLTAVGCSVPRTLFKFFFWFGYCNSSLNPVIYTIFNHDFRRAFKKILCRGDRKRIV
Method: as §1

H2 = molecular target: T4, H2 (Homo sapiens, UniProt P25021); assay: Primary radioligand binding screen
T4 construct: expressed in transfected cells
T4 sequence (P25021 whole entry): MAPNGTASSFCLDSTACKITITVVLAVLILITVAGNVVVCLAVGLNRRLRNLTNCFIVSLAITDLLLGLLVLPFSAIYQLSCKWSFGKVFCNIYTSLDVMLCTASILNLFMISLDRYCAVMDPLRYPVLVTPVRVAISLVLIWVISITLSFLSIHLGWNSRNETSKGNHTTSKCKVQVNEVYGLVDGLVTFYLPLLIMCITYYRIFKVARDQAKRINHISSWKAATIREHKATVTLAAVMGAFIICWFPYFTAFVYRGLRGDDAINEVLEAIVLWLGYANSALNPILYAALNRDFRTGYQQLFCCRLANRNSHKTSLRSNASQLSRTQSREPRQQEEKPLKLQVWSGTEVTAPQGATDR
Method: as §1

SERT = molecular target: T5, SERT (Homo sapiens, UniProt P31645); assay: Primary radioligand binding screen
T5 construct: expressed in transfected cells
T5 sequence (P31645 whole entry): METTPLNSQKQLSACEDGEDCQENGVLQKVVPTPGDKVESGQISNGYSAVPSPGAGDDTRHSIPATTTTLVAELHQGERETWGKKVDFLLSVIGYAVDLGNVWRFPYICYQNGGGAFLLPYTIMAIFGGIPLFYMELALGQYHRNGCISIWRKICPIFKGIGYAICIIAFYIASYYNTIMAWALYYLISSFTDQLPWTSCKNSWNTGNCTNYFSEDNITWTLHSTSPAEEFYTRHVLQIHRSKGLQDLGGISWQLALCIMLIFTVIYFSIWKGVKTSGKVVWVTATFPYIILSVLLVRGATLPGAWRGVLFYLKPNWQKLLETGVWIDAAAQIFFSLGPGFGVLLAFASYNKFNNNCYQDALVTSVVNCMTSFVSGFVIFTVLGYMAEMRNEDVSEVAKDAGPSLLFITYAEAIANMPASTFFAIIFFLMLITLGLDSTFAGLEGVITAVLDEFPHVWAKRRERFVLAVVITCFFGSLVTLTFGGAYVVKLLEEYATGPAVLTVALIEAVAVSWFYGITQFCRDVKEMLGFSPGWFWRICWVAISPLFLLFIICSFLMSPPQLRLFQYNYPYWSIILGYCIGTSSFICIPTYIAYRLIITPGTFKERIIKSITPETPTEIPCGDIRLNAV
Method: as §1

BZP Rat Brain Site = conditions: primary binding, dezocine 10 μM
Method: as §1

delta opioid receptor = molecular target: T6, delta opioid receptor (Homo sapiens, UniProt P41143); assay: Secondary radioligand binding assay (affinity); conditions: mean±SE; read-out: Ki DOR
T6 construct: expressed in transfected cells
T6 sequence (P41143 whole entry): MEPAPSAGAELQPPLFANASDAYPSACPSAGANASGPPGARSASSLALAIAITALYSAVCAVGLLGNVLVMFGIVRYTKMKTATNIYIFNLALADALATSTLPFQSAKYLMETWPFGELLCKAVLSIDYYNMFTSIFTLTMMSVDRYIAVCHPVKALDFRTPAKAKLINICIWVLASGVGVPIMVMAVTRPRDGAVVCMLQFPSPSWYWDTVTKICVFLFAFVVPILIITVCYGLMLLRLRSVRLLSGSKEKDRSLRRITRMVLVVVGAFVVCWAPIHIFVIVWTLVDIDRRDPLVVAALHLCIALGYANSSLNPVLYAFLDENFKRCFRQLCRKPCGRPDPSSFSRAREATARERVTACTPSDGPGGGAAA
Method: (§2) The secondary binding assay was performed only when the inhibition in the primary screen was over 50%. A secondary binding assay was utilized to determine the binding affinity for the identified receptor.
(§3) 50 μL of a crude membrane fraction of cells expressing the respective receptors were applied to each well. Reaction incubation, harvesting and radioactivity measurement from the primary assay were repeated. Affinity is expressed as pKi (−log Ki).

[1] = molecular target: T7, norepinephrine transporter (NET) (Homo sapiens, UniProt P23975); assay: Secondary radioligand binding assay (affinity); conditions: mean±SE
T7 construct: expressed in transfected cells
T7 sequence (P23975 whole entry): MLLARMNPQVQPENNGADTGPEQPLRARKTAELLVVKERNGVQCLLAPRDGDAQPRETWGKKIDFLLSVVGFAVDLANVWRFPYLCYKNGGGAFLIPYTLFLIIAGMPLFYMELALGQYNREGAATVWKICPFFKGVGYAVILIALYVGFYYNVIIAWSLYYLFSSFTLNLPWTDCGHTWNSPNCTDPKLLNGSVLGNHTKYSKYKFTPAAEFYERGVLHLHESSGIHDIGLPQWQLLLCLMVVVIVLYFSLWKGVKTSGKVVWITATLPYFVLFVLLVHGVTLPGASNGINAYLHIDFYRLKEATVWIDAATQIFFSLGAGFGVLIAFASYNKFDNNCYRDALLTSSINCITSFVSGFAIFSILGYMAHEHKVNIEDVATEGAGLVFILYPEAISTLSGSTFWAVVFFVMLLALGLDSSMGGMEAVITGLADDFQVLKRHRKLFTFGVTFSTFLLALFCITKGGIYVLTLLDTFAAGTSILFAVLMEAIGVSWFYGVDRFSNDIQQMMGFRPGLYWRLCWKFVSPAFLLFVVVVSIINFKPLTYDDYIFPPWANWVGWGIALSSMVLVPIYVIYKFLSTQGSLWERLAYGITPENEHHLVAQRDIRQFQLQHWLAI
Method: as §2, §3

[2] = molecular target: T8, serotonin transporter (SERT) (Homo sapiens, UniProt P31645); assay: Secondary radioligand binding assay (affinity)
T8 construct: expressed in transfected cells
T8 sequence (P31645 whole entry): as the sequence (P31645 whole entry) above
Method: as §2, §3

T1 sequence (P34969 whole entry): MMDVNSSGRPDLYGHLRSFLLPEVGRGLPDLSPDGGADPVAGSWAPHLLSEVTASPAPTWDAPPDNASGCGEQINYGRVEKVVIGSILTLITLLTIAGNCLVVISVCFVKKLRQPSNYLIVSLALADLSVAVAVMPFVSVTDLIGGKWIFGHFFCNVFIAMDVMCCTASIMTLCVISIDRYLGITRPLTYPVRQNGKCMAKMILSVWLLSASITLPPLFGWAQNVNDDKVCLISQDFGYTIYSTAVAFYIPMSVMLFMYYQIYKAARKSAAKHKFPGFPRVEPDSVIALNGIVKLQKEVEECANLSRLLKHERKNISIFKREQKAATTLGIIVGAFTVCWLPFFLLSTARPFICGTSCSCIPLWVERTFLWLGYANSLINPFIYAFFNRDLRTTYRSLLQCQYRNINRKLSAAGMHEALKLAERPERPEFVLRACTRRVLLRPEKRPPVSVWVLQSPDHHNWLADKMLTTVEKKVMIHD

## C[C@@]12CCCCC[C@@H](Cc3ccc(O)cc31)[C@@H]2N [Dezocine, (−)-13β-amino-5,6,7,8,9,10,11,12-octahydro-5α-methyl-5,11-methanobenxocyclodecen-31-ol, hydrobromide]
5-HT7
  inhibition at 10 µM: 20.9%
Alpha1D
  inhibition at 10 µM: 8.9%
Alpha2A
  inhibition at 10 µM: 40.9%
H2
  inhibition at 10 µM: 33.6%
SERT
  inhibition at 10 µM: 97.7%
BZP Rat Brain Site
  % inhibition: 11.5%
Delta opioid receptor
  Ki: 0.527 ± 0.07 µM
[1]
  pKi NET: 6.00±0.10
[2]; FIG. 12
  Ki: 0.111 µM
[2]; mean±SE
  pKi SERT: 6.96±0.08
